Assay [1] deals with F/V cells (angiogenic endothelial cells of foetal bovine aorta). Kind of assay: Proliferation test on F/V cells. Type of assay: cell-based. Particulars: for sensitivity of F/V cells compared with F/0 cells to anti-angiogenic agent: F/V versus F/0 cells, seeded at low density (5000), FIG. 4. How it is done:
(§1) FIG. 5A relates in particular to the action of the type 3 antibodies on the proliferation of the F/V cells of angiogenic phenotype. FIG. 5B relates to the action of the type 3 antibodies on the proliferation of the F/O non-angiogenic cells. The test carried out is a proliferation test as described in the examples. The cells are cultured in DMEM supplemented with 5% newborn calf serum to which is added either no angiogenic factor (condition 0), or 2 ng/ml VEGF (condition VEGF), or 2 ng/ml FGF-2 (condition FGF-2). The antibody is added at the same time as the angiogenic factors, at variable concentrations (0, 1, 3 or 7 μg/ml).
(§2) The test carried out is a proliferation test as described in the examples. The cells are cultured in DMEM supplemented with 5% newborn calf serum. The antibody is added at the same time as the angiogenic factors, at variable concentrations (0, 50 or 100 μg/ml).
12-well plates are seeded at a low density (5000 to 10,000 cells/well), in DMEM medium with 8% serum. After 24 hours, the proliferation of the cells is stimulated by the addition of a range of growth factor, anti-angiogenic medicaments (methoxyestradiol, fumagillin, SU5416 targeted on VEGF-R2—Plouët et al., 2001) or antibodies of the present invention. The cells are restimulated after 48 hours and then after a total of five days in culture the cells are trypsinated and counted with a Coulter counter.
The F/0 and F/V cells are seeded at a low density (5000) as indicated and three drugs are inoculated separately, 2 of which are of unknown mechanism (Methoxyestradiol-ME-2 and fumagillin—FUMA) and 1 interfering with VEGF-R2 (SU 5416) inhibiting kinase activity.

Assay [2] has as its system F/0 cells (non-angiogenic endothelial cells of foetal bovine aorta). Put plainly: Proliferation test on F/0 cells. It is filed as cell-based. Here is the method:
as §1, §2
12-well plates are seeded at a low density (5000 to 10,000 cells/well), in DMEM medium with 8% serum. After 24 hours, the proliferation of the cells is stimulated by the addition of a range of growth factor, anti-angiogenic medicaments (methoxyestradiol, fumagillin, SU5416 targeted on VEGF-R2—Plouët et al., 2001) or antibodies of the present invention. The cells are restimulated after 48 hours and then after a total of five days in culture the cells are trypsinated and counted with a Coulter counter. […]

“Also recorded” adds a separate entry of the source.

As for `CO[C@@H]1[C@H](OC(=O)/C=C/C=C/C=C/C=C/C(=O)O)CC[C@]2(CO2)[C@H]1[C@@]1(C)O[C@@H]1CC=C(C)C` [fumagillin], the “sensitivity of F/V cells compared with F/0 cells to anti-angiogenic agent” value in assay [1] was “identically sensitive; also recorded: equally sensitive”.

Consider `COc1cc2c(cc1O)CC[C@@H]1[C@@H]2CC[C@]2(C)[C@@H](O)CC[C@@H]12` [methoxyestradiol], for which, in assay [1], the “sensitivity of F/V cells compared with F/0 cells to anti-angiogenic agent” value is on record as “identically sensitive; also recorded: equally sensitive”.

Take `Cc1cc(C)c(/C=C2\C(=O)Nc3ccccc32)[nH]1` [SU 5416]: in assay [1], the “sensitivity of F/V cells compared with F/0 cells to anti-angiogenic agent” value is listed as “much more sensitive”.

As for VEGF, the “proliferation under the action of VEGF (in words)” value in assay [2] is recorded as “do not proliferate”. For the same compound, the “ED 50 of mitogenic action” value in assay [1] (F/V cells) is 0.3 ng/mL.

Source of the values: patent publication US20060263827A1, “Novel endothelial cells, antibodies directed against said cells and use thereof, in particular for screening angiogenesis inhibiting substances” (priority 2002, published 2006).
